Results reported in patent publication US20220387358A1, “CERAMIDE ANALOG SACLAC MODULATES SPHINGOLIPID LEVELS AND MCL-1 SPLICING TO INDUCE APOPTOSIS IN ACUTE MYELOID LEUKEMIA” (University of Virginia Patent Foundation, priority 2019, published 2022).
Entries after “also recorded” stand apart in the source; their conditions may differ.

Test system: human MV4-11 AML cells
Assay: MV4-11 AML xenograft model in NSG mice
Format: in vivo
Protocol: MV4-11 AML cells expressing luciferase (luc2) and YFP (39) or U937 AML cells expressing luc2 and tdTomato (#72486, Addgene, Watertown, Mass., United States of America) were used to investigate the efficacy of SACLAC in NOD-scid […] (NSG) mice (Jackson Laboratories, Bar Harbor, Me., United States of America). Maximum tolerated dose and pharmacokinetic studies were also performed to determine safety and delivery of compound.
To assess the efficacy of SACLAC in a transplantable human AML model, two cell line models were used. For the MV4-11 model, 2.5×10^6 luciferase and yellow fluorescent protein (YFP)-expressing MV4-11 cells in HBSS were introduced into 6- to 8-week-old female NSG mice via tail-vein injections. After 10-12 days, engraftment was confirmed using bioluminescence imaging with the IVIS Lumina LT Series III imaging system (PerkinElmer Inc., Waltham, Mass., United States of America). Mice were equally randomized into two groups of three mice and treated with vehicle or SACLAC at 5 mg/kg/day five times per week for 18 total injections. At the end of the treatment, animals were euthanized and peripheral blood was collected for flow cytometry analysis.
Red blood cells (RBC) were lysed with RBC Lysis Buffer (#420301, BioLegend, San Diego, Calif., United States of America) followed by cell surface staining with anti-human CD45 antibodies (#304014, clone HI30, BioLegend, San Diego, Calif., United States of America) and 7AAD (#420404, BioLegend, San Diego, Calif., United States of America) to detect viable human white blood cells (WBC) using an LSR II flow cytometer and BD FACS Diva software. Viable cells were identified by gating on 7AAD-negative cells gated from singlets (SSC-A and FSC-W scales), after excluding the debris (SSC-A and FSC-A scales). Percentage of YFP, tdTomato or hCD45 positive cells was determined in FlowJo software (Becton Dickinson, Franklin Lakes, N.J., United States of America). All animal studies were performed with IACUC approval.

CCCCCCCCCCCCCCC[C@@H](O)[C@H](CO)NC(=O)CCl [SACLAC, N-[(2S,3R)-1,3-dihydroxyoctadecan-2-yl]2-chloroacetamide]
toxicity in treated animals (5 mg/kg i.v. in β-HPCD): No overt toxicity; also recorded: non-toxic
body weight of treated animals (5 mg/kg i.v. in β-HPCD, course of the study): weight gain; also recorded: did not lose weight
decrease in leukemic burden (circulating leukemic cells in blood) (5 mg/kg tail-vein, five times per week, 18 injections): ~75%
